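Five compound concentrations were applied to cells in 96-well plates for 48 hours; endpoints were derived by simple linear interpolation of the resulting dose-response curve. GI50 = concentration required for 50% inhibition of growth. Definition used: TGI = concentration required for complete inhibition of growth.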
Key:
Assay in all cases: NCI-60 cell line screen, 48 h
[1] = test system: A498 renal
[2] = test system: HL-60(TB) leukemia
[3] = test system: NCI-H226 lung
[4] = test system: SF-295 CNS
[5] = test system: SF-539 CNS
[6] = test system: UO-31 renal
[7] = test system: CCRF-CEM leukemia
[8] = test system: HCC-2998 colon
[9] = test system: SR leukemia
[10] = test system: BT-549 breast

SMILES | TGI [1] | TGI [2] | TGI [3] | TGI [4] | TGI [5] | TGI [6] | GI50 [1] | GI50 [7] | TGI [7] | GI50 [8] | GI50 [3] | GI50 [4] | GI50 [9] | TGI [9] | GI50 [6] | TGI [8] | GI50 [2] | GI50 [5] | TGI [10] | GI50 [10]
CC1=NN(C(=O)c2ccncc2)C(=O)C1N=Nc1ccc(F)cc1 (stereo not drawn) | > 100 µM | > 100 µM | > 100 µM | > 100 µM | > 100 µM | > 100 µM |  |  |  |  |  |  |  |  |  |  |  |  |  | 
CCCCCCCCCCCCCC[n+]1cccc(C(N)=O)c1 | 29.2 µM |  | 5.11 µM | 4.23 µM |  | 26.3 µM | 5.57 µM | 1.5 µM | 4.47 µM | 2.2 µM | 1.63 µM | 1.69 µM | 1.45 µM | 3.94 µM | 9.42 µM |  |  |  |  | 
COc1cc(CNc2nc3ccc(C(F)(F)F)cc3nc2-c2ccccc2)cc(OC)c1OC | > 100 µM | 55.9 µM |  | > 100 µM | > 100 µM | 55.6 µM |  |  | > 100 µM |  |  |  |  |  |  | > 100 µM |  |  |  | 
C[C@]12C/C(=C/O)C(=O)C(O)=C1CC[C@@H]1C2CC[C@@]2(C)C1CC[C@@H]2O (stereo partly drawn) | 65.1 µM | 41.8 µM | 36.8 µM | 72.5 µM | 34.2 µM | 31.3 µM |  |  | 47.5 µM |  |  |  |  |  |  |  |  |  |  | 
N#Cc1c(-c2ccco2)cc(-c2ccccc2)[nH]c1=O | > 100 µM | > 100 µM | > 100 µM | > 100 µM | > 100 µM | > 100 µM |  |  | > 100 µM |  |  |  |  | > 100 µM |  | > 100 µM |  |  |  | 
Cc1cccc(N(CC(=O)O)S(=O)(=O)c2ccccc2)c1 | > 100 µM | > 100 µM | > 100 µM | > 100 µM | > 100 µM | > 100 µM |  |  | > 100 µM |  |  |  |  |  |  | > 100 µM |  |  |  | 
CC(=O)n1c(=O)c2cc3c(=O)n(-c4cccc(C#N)c4)c(=O)c3cc2c1=O | > 100 µM | > 100 µM | > 100 µM | > 100 µM | > 100 µM | > 100 µM |  |  | > 100 µM |  |  |  |  |  |  | > 100 µM |  |  |  | 
CC1(C)CC(=O)C(CC2C(=O)c3ccccc3C2=O)C(=O)C1 | > 100 µM | > 100 µM | > 100 µM | > 100 µM | > 100 µM | > 100 µM |  |  | > 100 µM |  |  |  |  | > 100 µM |  | > 100 µM |  |  |  | 
c1ccc(-c2nc(N3CCCNCC3)c3nc(-c4ccccc4)oc3n2)cc1 | 2.3 µM | 3.55 µM |  | 3.25 µM | 3.03 µM | 2.71 µM | 1.07 µM |  |  | 1.53 µM |  | 1.81 µM |  |  | 1.35 µM | 3.02 µM | 1.83 µM | 1.64 µM |  | 
O=c1[nH]c2cc([N+](=O)[O-])ccc2nc1/C(=N\Nc1ccccc1)C(O)c1ccc2c(c1)OCO2 (stereo not drawn) |  | > 100 µM | > 100 µM | > 100 µM | > 100 µM | > 100 µM |  |  | > 100 µM |  |  |  |  | > 100 µM |  | > 100 µM |  |  |  | 
Cc1cccc(C)c1N1C(=O)C(=O)C(c2nc3ccccc3s2)C(=Nc2cccc3c(=O)[nH][nH]c(=O)c23)C1=O (stereo not drawn) | > 100 µM | > 100 µM | > 100 µM | > 100 µM | > 100 µM | > 100 µM |  |  | > 100 µM |  |  |  |  | > 100 µM |  | > 100 µM |  |  |  | 
CC(C)[O-].CC(C)[O-].O=c1cccccc1[O-].O=c1cccccc1[O-].[Ti+4] |  | > 100 µM | > 100 µM | > 100 µM | > 100 µM | > 100 µM |  |  | > 100 µM |  |  |  |  | > 100 µM |  | > 100 µM |  | 29.3 µM |  | 
CC1(O)CCn2c(=O)c3cc4ccccc4cc3c(=O)n2C1O (stereo not drawn) |  | > 100 µM | > 100 µM | > 100 µM | > 100 µM |  |  |  | > 100 µM |  |  |  |  | > 100 µM |  | > 100 µM |  |  |  | 
CCCCCCC(C)CCCCCCCCCCC(=O)O (stereo not drawn) | > 100 µM | > 100 µM | > 100 µM | > 100 µM | > 100 µM | > 100 µM |  |  | > 100 µM |  |  |  |  | > 100 µM |  |  |  |  |  | 
CCOC(OC1=C(C#N)CCCC1)C(CC)[Se]c1ccccc1 (stereo not drawn) | > 100 µM | 42.9 µM | 49.6 µM | 98.7 µM | 31.7 µM | > 100 µM |  |  | 56.4 µM |  |  |  |  | 31 µM |  | > 100 µM |  |  |  | 
COC(=O)C1C(=O)N(CCc2c[nH]c3ccccc23)C[C@@H]2CCC(=O)C[C@H]12 (stereo partly drawn) | > 100 µM | > 100 µM |  | > 100 µM | > 100 µM | > 100 µM |  |  | > 100 µM |  |  |  |  |  |  | > 100 µM |  |  |  | 
Cn1c(=O)nc2n(-c3ccc(Cl)c(C(F)(F)F)c3)c3ccccc3nc-2c1=O | > 100 µM | 46.2 µM | > 100 µM | > 100 µM | > 79.9 µM | > 100 µM |  |  | > 100 µM |  |  |  |  |  |  | 80.8 µM |  |  |  | 
O=C1c2cccc3cccc(c23)C(=O)N1O | > 100 µM | > 100 µM |  | > 100 µM | > 100 µM | > 100 µM |  |  | > 100 µM |  |  |  |  |  |  | > 100 µM |  |  | > 100 µM | 
COc1ccc2[nH]c(-c3ccc(O)cc3)cc(=O)c2c1 | 0.725 µM | 2.16 µM | 4.81 µM | 6.71 µM | 4.32 µM | 98.2 µM |  |  | 21.9 µM |  |  |  |  |  |  | 3.4 µM |  |  | > 100 µM | 
O=[N+]([O-])c1ccc(-c2cc3c(Nc4ccc(Cl)c(C(F)(F)F)c4)ncnc3s2)cc1 | 3.42 µM | 3.62 µM | > 100 µM | 6.75 µM | 9.4 µM | > 26.7 µM | 0.706 µM | 1.29 µM | > 100 µM | 2.02 µM | 2.89 µM | 1.21 µM |  |  | 1.13 µM | > 100 µM | 0.906 µM | 1.88 µM | > 100 µM | 2.91 µM
Cc1ccc(C)c(N2C(=O)C(=O)C(c3nc4ccccc4s3)C(=Nc3cccc4c(=O)[nH][nH]c(=O)c34)C2=O)c1 (stereo not drawn) | > 100 µM | > 100 µM | > 100 µM | > 100 µM | > 100 µM | > 100 µM |  |  | > 100 µM |  |  |  |  | > 100 µM |  | > 100 µM |  |  |  | 
Cc1nc(-c2cccnc2)sc1C(=O)/C=C/c1cccc([N+](=O)[O-])c1 | > 100 µM | > 100 µM | > 100 µM | > 100 µM | > 100 µM | > 100 µM |  |  | > 100 µM |  |  |  |  |  |  | > 100 µM |  |  |  | 
N.N.N.N.N.O=S(=O)([O-])S(=O)(=O)[O-].[Co+3] | > 100 µM | > 100 µM |  | > 100 µM | > 100 µM | > 100 µM | > 100 µM | > 100 µM | > 100 µM |  |  | > 100 µM |  |  | > 100 µM |  | > 100 µM | > 100 µM |  | 
